From PMC6856977 (Molecular Pain, 2018)
pEC50: −log10 of the molar value.

Tests used:
rTRPV1 [1] = biological target: T1, rTRPV1 (Rattus norvegicus, UniProt O35433); assay: whole-cell patch clamp, block of capsaicin-evoked current; type: cell-based; details: channel block; capsaicin 100 nM; HEK293t, -60 mV, room temperature, pH 7.4
hTRPA1 [2] = biological target: hTRPA1 (Homo sapiens, UniProt O75762, C621S/C641S/C665S); assay: whole-cell patch clamp, evoked inward current; type: cell-based
hTRPA1 [3] = biological target: hTRPA1 (Homo sapiens, UniProt O75762); assay: whole-cell patch clamp, evoked inward current; type: cell-based
mTRPA1 = mTRPA1 (Mus musculus, UniProt Q8BLA8); assay: whole-cell patch clamp, evoked inward current
rTRPV1 [4] = biological target: T1, rTRPV1; assay: whole-cell patch clamp, evoked inward current; type: cell-based; details: agonist; 10% PG (1366 mM); HEK293t, -60 mV, room temperature, pH 7.4

T1 sequence (O35433 whole entry): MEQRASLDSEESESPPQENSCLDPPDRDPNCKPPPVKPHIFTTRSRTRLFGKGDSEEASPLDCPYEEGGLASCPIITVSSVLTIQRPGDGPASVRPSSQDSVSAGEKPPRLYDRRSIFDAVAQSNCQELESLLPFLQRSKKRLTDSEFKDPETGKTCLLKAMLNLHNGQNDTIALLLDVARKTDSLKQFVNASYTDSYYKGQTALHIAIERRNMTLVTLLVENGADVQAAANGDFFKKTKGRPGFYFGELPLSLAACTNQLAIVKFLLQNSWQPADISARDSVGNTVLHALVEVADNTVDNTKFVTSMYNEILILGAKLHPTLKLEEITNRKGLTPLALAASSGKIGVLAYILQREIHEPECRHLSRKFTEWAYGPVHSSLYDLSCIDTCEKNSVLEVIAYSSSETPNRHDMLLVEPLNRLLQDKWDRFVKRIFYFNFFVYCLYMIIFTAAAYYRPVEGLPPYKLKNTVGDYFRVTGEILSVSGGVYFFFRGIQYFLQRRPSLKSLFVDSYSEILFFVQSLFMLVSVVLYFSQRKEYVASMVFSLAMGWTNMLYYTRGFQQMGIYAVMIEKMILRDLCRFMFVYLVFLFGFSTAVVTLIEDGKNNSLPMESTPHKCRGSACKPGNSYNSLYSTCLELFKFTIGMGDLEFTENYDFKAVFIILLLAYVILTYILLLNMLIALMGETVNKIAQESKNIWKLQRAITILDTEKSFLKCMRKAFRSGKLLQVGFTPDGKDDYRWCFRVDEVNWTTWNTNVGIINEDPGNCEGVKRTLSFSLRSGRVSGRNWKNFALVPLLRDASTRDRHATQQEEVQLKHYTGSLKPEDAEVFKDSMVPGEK
mTRPA1, sequence (Q8BLA8 whole entry): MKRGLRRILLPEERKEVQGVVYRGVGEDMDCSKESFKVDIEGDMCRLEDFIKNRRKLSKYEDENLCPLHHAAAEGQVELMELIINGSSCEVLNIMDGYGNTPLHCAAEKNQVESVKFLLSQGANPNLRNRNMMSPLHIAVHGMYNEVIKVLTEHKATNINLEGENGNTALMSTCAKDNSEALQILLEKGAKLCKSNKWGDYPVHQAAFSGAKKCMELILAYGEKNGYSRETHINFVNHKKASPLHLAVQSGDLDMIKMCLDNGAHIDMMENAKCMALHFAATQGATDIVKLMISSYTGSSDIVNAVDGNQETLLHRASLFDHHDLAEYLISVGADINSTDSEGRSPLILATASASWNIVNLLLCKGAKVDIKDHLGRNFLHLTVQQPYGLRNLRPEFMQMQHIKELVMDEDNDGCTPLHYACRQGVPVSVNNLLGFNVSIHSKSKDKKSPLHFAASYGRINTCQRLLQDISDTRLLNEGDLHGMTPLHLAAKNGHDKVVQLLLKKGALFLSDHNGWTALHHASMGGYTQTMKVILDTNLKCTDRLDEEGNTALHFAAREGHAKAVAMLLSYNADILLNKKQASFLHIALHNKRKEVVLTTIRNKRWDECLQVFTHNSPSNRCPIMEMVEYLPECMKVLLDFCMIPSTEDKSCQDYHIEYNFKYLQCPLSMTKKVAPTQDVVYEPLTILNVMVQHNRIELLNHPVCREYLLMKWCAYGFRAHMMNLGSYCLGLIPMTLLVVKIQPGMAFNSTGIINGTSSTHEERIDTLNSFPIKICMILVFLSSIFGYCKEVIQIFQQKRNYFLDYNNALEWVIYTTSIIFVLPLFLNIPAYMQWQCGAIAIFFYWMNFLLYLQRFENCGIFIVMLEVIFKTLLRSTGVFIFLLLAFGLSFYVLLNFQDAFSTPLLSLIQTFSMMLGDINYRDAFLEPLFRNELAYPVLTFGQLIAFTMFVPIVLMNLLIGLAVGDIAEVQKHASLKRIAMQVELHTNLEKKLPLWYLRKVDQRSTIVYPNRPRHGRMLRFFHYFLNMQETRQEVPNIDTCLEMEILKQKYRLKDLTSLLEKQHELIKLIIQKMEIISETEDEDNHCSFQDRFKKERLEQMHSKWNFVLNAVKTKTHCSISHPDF
hTRPA1 (Homo sapiens, UniProt O75762, C621S/C641S/C665S), sequence (O75762 whole entry C621S/C641S/C665S): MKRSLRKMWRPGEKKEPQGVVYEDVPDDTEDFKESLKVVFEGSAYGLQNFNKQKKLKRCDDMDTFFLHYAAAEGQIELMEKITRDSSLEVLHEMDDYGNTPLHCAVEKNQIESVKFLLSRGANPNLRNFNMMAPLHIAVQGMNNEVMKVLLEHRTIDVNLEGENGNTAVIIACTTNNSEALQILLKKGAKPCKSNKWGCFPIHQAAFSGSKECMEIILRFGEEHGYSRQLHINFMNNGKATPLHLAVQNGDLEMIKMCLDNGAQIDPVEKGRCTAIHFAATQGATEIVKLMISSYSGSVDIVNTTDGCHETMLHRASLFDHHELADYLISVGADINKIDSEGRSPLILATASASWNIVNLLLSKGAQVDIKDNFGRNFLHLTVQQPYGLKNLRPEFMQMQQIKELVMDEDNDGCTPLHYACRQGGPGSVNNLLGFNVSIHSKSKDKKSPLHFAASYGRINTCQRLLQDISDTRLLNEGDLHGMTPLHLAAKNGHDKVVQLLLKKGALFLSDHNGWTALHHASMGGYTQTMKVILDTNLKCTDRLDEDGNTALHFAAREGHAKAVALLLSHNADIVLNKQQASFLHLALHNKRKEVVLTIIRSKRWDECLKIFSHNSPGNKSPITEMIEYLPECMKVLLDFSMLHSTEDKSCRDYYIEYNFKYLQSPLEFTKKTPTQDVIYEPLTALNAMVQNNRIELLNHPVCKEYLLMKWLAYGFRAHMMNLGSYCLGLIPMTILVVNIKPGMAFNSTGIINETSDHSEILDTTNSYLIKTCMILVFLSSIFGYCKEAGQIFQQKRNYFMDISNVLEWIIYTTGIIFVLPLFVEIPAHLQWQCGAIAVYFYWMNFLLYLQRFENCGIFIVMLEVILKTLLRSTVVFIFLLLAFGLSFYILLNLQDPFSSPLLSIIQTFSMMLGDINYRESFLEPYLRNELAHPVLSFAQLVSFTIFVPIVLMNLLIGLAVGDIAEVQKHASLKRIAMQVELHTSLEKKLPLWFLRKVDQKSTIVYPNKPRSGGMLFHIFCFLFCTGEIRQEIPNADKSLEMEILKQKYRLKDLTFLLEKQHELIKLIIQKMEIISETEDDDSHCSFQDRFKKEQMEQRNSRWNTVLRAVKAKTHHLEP
hTRPA1 (Homo sapiens, UniProt O75762), sequence (O75762 whole entry): as the sequence (O75762 whole entry C621S/C641S/C665S) above, with S621C, S641C, S665C counted along it

Row | SMILES | % current reduction at 100 μM (rTRPV1 [1]) | pEC50 (hTRPA1 [2]) | pEC50 (hTRPA1 [3]) | pEC50 (mTRPA1) | current density at 10% PG (rTRPV1 [4])
1 | CCOC(=O)c1cncn1[C@H](C)c1ccccc1 [etomidate] | 32 (95% CI: 20.2–43.8) | ~2.86 | 4.14 | 3.43 | 
2 | CC(O)CO (centres unmarked) [propylene glycol] |  |  |  |  | 215 ± 26 pA/pF
